According to ChEMBL document CHEMBL5576135, “Discovery of Indolo[3,2-c]isoquinoline Derivatives as Novel Top1/2 Dual Inhibitors with Orally Efficacious Antitumor Activity and Low Toxicity” (J Med Chem, 2024):
The source made the active and inactive calls. The rule behind the calls is not given here.

Assays:
NCI-H2228 = test: Antiproliferative activity against human NCI-H2228 cells assessed as inhibition of cell growth incubated for 96 hrs by MTT based ELISA; format: functional; conditions: NCI-H2228, 96 h
HCT-116 [1] = test: Antiproliferative activity against human HCT-116 cells assessed as inhibition of cell growth incubated for 96 hrs by MTT based ELISA; format: functional; conditions: HCT-116, 96 h
MCF7 = test: Antiproliferative activity against human MCF7 cells assessed as inhibition of cell growth incubated for 96 hrs by MTT based ELISA; format: functional; conditions: MCF7, 96 h
[2] = molecular target: DNA topoisomerase 2-alpha (Homo sapiens) (UniProt P11388); test: Inhibition of Topoisomerase 2 (unknown origin) using pBR322 DNA as substrate at 100 uM incubated for 15 mins by EtBr staining based agarose gel electrophoresis method relative to control
[3] = molecular target: T1, DNA topoisomerase 1 (Homo sapiens) (UniProt P11387); test: Inhibition of Topoisomerase I (unknown origin) using pBR322 DNA as substrate at 200 uM incubated for 15 mins by EtBr staining based agarose gel electrophoresis method relative to control
T1 sequence (whole entry): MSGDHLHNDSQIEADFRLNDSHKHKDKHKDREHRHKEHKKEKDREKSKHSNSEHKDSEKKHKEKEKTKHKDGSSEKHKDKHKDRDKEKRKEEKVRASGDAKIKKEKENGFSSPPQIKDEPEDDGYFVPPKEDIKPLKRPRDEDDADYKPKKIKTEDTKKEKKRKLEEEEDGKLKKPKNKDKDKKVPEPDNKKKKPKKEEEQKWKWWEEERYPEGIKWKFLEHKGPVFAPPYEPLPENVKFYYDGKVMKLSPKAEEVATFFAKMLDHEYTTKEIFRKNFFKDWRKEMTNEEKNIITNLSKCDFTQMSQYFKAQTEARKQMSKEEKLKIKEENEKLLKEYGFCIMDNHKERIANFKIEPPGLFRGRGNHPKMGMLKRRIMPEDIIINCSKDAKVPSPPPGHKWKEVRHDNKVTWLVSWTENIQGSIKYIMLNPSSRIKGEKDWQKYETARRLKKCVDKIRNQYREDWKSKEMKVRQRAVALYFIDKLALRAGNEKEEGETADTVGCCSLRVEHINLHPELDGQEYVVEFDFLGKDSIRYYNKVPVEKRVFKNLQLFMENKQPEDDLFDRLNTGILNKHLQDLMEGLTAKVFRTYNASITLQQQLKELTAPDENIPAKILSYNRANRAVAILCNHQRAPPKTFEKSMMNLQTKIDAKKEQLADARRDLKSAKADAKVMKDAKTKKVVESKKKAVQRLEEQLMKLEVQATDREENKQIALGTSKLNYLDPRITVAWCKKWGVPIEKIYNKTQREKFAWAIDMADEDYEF

PC-3 = test: Antiproliferative activity against human PC-3 cells assessed as inhibition of cell growth incubated for 96 hrs by MTT based ELISA; format: functional; conditions: PC-3, 96 h
[4] = molecular target: T1, DNA topoisomerase 1 (Homo sapiens); test: Inhibition of Topoisomerase I (unknown origin) using pBR322 DNA as substrate at 50 uM incubated for 15 mins by EtBr staining based agarose gel electrophoresis method
MDA-MB-231 = test: Antiproliferative activity against human MDA-MB-231 cells assessed as inhibition of cell growth incubated for 96 hrs by MTT based ELISA; format: functional; conditions: MDA-MB-231, 96 h
[5] = molecular target: T1, DNA topoisomerase 1 (Homo sapiens); test: Inhibition of Topoisomerase I (unknown origin) using pBR322 DNA as substrate at 10 uM incubated for 15 mins by EtBr staining based agarose gel electrophoresis method
[6] = molecular target: DNA topoisomerase 2-alpha (Homo sapiens) (UniProt P11388); test: Inhibition of Topoisomerase 2 (unknown origin) using pBR322 DNA as substrate at 50 uM incubated for 15 mins by EtBr staining based agarose gel electrophoresis method
Huh-7 = test: Antiproliferative activity against human Huh-7 cells assessed as inhibition of cell growth incubated for 96 hrs by MTT based ELISA; format: functional; conditions: Huh-7, 96 h
[7] = Antiproliferative activity against human BEAS-2B cells assessed as inhibition of cell growth incubated for 96 hrs by MTT based ELISA; format: toxicity
NCI-H1975 = test: Antiproliferative activity against human NCI-H1975 cells assessed as inhibition of cell growth incubated for 96 hrs by MTT based ELISA; format: functional; conditions: NCI-H1975, 96 h
PC-9 = test: Antiproliferative activity against human PC-9 cells assessed as inhibition of cell growth incubated for 96 hrs by MTT based ELISA; format: functional; conditions: PC-9, 96 h
NCI-H446 [8] = test: Antiproliferative activity against human NCI-H446 cells assessed as inhibition of cell growth incubated for 96 hrs by MTT based ELISA; format: functional; conditions: NCI-H446, 96 h
NCI-H446 [9] = test: Antitumor activity against human NCI-H446 cells xenografted with BALB/c mouse assessed as tumor growth inhibition at 4 mg/kg,ip administrated 3 times weekly for 21 days in presence of cisplatin relative to control; format: functional; conditions: NCI-H446, 504 h, time 21 day, read-out: TGI
DU-145 = test: Antiproliferative activity against human DU-145 cells assessed as inhibition of cell growth incubated for 96 hrs by MTT based ELISA; format: functional; conditions: DU-145, 96 h
A549 = test: Antiproliferative activity against human A549 cells assessed as inhibition of cell growth incubated for 96 hrs by MTT based ELISA; format: functional; conditions: A549, 96 h
NCI-H446 [10] = test: Antitumor activity against human NCI-H446 cells xenografted with BALB/c mouse assessed as tumor growth inhibition by measuring T/C ratio at 4 mg/kg,ip administrated 3 times weekly for 21 days in presence of cisplatin; format: functional; conditions: time 21 day
NCI-H1650 = test: Antiproliferative activity against human NCI-H1650 cells assessed as inhibition of cell growth incubated for 96 hrs by MTT based ELISA; format: functional; conditions: NCI-H1650, 96 h
[11] = Toxicity in Kunming mouse assessed as reduction in body weight at 30 mg/kg,ip administrated for 3 days; format: organism-based; parameters: scale not given: the % may be the effect or the level left; conditions: in vivo, 72 h, time 3 day
[12] = Toxicity in Kunming mouse assessed as reduction in body weight at 100 mg/kg,po administrated for 3 days; format: organism-based; parameters: scale not given: the % may be the effect or the level left; conditions: in vivo, 72 h, time 3 day
[13] = Toxicity in Kunming mouse assessed as lethal dose at po administration for 2 weeks; format: organism-based; conditions: in vivo
NCI-H446 [14] = test: Inhibition of cell migration in human NCI-H446 cells at 4 uM incubated for 48 hrs by phase-contrast microscopic analysis relative to control; format: functional
NCI-H446 [15] = test: Induction of DNA damage in human NCI-H446 cells assessed as increase in intracellular ROS level at 8 uM incubated for 6 hrs by DCFHDA probe based fluorescence microscopic analysis; format: functional, cell-based
NCI-H446 [16] = test: Induction of cell cycle arrest in human NCI-H446 cells assessed as accumulation of cells at S phase at 8 uM incubated for 48 hrs by propidium iodide/RNase A staining based flow cytometry; format: functional
HCT-116 [17] = test: Antitumor activity against human HCT-116 cells xenografted with BALB/c mouse assessed as tumor growth inhibition by measuring T/C ratio at 20 mg/kg,ip administrated twice weekly for 21 days; format: functional, organism-based; conditions: time 21.0 day
NCI-H446 [18] = test: Inhibition of colony formation in human NCI-H446 cells at 1 uM incubated for 24 hrs by crystal violet staining based analysis relative to control; format: functional
NCI-H446 [19] = test: Induction of DNA damage in human NCI-H446 cells assessed as increase in intracellular gamma-H2AX level at 8 uM incubated for 48 hrs by Western blotting analysis; format: functional, cell-based
HCT-116 [20] = test: Antitumor activity against human HCT-116 cells xenografted with BALB/c mouse assessed as tumor growth inhibition at 20 mg/kg,ip administrated twice weekly for 21 days relative to control; format: functional, organism-based; conditions: time 21.0 day
NCI-H446 [21] = test: Induction of apoptosis in human NCI-H446 cells at 8 uM incubated for 48 hrs by Annexin V-FITC/PI staining based flow cytometry relative to control; format: functional
NCI-H446 [22] = test: Induction of cell cycle arrest in human NCI-H446 cells assessed as accumulation of cells at G2/M phase at 8 uM incubated for 48 hrs by propidium iodide/RNase A staining based flow cytometry; format: functional
NCI-H446 [23] = test: Induction of DNA damage in human NCI-H446 cells assessed as tail DNA at 8 uM incubated for 48 hrs by comet assay relative to control; format: functional
NCI-H446 [24] = test: Inhibition of colony formation in human NCI-H446 cells at 2 uM incubated for 24 hrs by crystal violet staining based analysis relative to control; format: functional
[25] = molecular target: DNA topoisomerase 2-alpha (Homo sapiens) (UniProt P11388); test: Inhibition of Topoisomerase 2 (unknown origin) using pBR322 DNA as substrate at 0.5 uM incubated for 15 mins by EtBr staining based agarose gel electrophoresis method
[26] = molecular target: T1, DNA topoisomerase 1 (Homo sapiens); test: Inhibition of Topoisomerase I (unknown origin) using pBR322 DNA as substrate at 1 uM incubated for 15 mins by EtBr staining based agarose gel electrophoresis method
[27] = molecular target: T1, DNA topoisomerase 1 (Homo sapiens); test: Inhibition of Topoisomerase I (unknown origin) using pBR322 DNA as substrate at 5 uM incubated for 15 mins by EtBr staining based agarose gel electrophoresis method
[28] = molecular target: DNA topoisomerase 2-alpha (Homo sapiens) (UniProt P11388); test: Inhibition of Topoisomerase 2 (unknown origin) using pBR322 DNA as substrate at 10 uM incubated for 15 mins by EtBr staining based agarose gel electrophoresis method
[29] = molecular target: T1, DNA topoisomerase 1 (Homo sapiens); test: Inhibition of Topoisomerase I (unknown origin) using pBR322 DNA as substrate at 2 uM incubated for 15 mins by EtBr staining based agarose gel electrophoresis method

DNA topoisomerase 2-alpha (Homo sapiens), sequence (P11388 whole entry): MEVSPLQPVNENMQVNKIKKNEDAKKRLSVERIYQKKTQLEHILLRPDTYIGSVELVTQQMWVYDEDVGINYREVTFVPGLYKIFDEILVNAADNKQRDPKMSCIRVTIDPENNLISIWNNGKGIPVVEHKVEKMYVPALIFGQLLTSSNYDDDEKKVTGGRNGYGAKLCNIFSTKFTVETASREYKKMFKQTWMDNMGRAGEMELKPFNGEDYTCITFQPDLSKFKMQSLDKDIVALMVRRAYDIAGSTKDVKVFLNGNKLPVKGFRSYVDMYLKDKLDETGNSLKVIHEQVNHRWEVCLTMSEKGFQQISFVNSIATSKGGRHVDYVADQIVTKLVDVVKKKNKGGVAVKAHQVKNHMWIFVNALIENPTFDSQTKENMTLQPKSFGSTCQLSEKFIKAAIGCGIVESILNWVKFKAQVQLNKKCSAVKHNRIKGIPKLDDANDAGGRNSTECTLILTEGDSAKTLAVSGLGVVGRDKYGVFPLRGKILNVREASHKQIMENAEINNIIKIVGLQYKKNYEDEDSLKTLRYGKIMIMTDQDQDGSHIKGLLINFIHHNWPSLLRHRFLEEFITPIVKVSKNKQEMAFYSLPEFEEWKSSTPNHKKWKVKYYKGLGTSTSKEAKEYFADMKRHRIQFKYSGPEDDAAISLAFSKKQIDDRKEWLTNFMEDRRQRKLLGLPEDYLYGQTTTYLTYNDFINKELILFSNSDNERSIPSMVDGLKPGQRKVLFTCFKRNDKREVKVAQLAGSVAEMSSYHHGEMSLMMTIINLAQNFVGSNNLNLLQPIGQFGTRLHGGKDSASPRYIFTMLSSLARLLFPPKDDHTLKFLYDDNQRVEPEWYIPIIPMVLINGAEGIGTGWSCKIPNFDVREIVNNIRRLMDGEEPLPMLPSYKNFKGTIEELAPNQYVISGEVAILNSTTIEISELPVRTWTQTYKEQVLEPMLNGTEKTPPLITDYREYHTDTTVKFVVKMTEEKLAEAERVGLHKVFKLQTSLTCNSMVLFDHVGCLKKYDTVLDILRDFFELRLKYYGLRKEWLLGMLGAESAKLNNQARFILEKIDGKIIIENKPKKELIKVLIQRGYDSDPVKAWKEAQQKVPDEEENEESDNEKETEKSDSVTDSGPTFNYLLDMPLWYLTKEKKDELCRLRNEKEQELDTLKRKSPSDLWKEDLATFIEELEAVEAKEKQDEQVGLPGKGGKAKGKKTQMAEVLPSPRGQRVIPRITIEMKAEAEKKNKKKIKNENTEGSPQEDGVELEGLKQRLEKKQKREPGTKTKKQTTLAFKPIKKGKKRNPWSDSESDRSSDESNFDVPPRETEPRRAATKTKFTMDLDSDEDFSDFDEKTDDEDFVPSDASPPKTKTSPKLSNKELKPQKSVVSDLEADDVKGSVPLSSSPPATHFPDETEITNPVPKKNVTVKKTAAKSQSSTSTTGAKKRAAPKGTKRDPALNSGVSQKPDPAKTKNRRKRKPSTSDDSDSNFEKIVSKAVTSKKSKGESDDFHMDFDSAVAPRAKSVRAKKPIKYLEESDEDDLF

Row | IC50 (NCI-H2228) [µM] | IC50 (HCT-116 [1]) [µM] | IC50 (MCF7) [µM] | inhibition [2] [%] | inhibition [3] [%] | IC50 (PC-3) [µM] | inhibition [4] | IC50 (MDA-MB-231) [µM] | inhibition [5] | inhibition [6] | IC50 (Huh-7) [µM] | Structure (SMILES) | also measured
1 | 0.96 | 0.26 | 0.37 | > 95 | > 95 | 0.47 | Active | 0.56 | Active | Active | 0.94 | CN(C)CCCn1c2cc3c(cc2c2nc(Cl)c4ccccc4c21)OCO3 | –
2 | 2.51 | 2 | 1.18 | – | – | 1.59 | – | 2.87 | – | – | 3.8 | COc1cc([C@@H]2c3cc4c(cc3[C@@H](O[C@@H]3O[C@@H]5CO[C@@H](C)O[C@H]5[C@H](O)[C@H]3O)[C@H]3COC(=O)[C@H]23)OCO4)cc(OC)c1O [ETOPOSIDE] | IC50 at 96 h [7]: > 10 µM; IC50 (NCI-H1975): 0.34 µM; IC50 (PC-9): 2.22 µM; IC50 (NCI-H446 [8]): 0.24 µM; inhibition in vivo at 4 mg/kg (NCI-H446 [9]): 27.7%; IC50 (DU-145): 1.65 µM; IC50 (A549): > 10 µM; T/C (NCI-H446 [10]): 68.2%; IC50 (NCI-H1650): 2.65 µM; Activity [11]: > 10%
3 | – | – | – | – | – | – | – | – | – | – | – | CC[C@@]1(O)C(=O)OCc2c1cc1n(c2=O)Cc2cc3c(CN(C)C)c(O)ccc3nc2-1 [TOPOTECAN] | Activity [12]: > 10%; LD50 at 336 h [13]: < 1000 mg/kg
4 | 3.43 | 3.16 | 4.59 | – | – | 3.67 | – | > 10 | – | – | > 10 | CCc1c2c(nc3ccc(OC(=O)N4CCC(N5CCCCC5)CC4)cc13)-c1cc3c(c(=O)n1C2)COC(=O)[C@]3(O)CC [IRINOTECAN] | IC50 at 96 h [7]: > 10 µM; IC50 (NCI-H1975): 3.41 µM; inhibition at 4 µM (NCI-H446 [14]): 54.5%; IC50 (PC-9): 3.84 µM; IC50 (NCI-H446 [8]): 0.78 µM; Activity (NCI-H446 [15]): Active; Activity (NCI-H446 [16]): 59.3%; IC50 (DU-145): 0.96 µM; inhibition (HCT-116 [17]): Active; IC50 (A549): > 10 µM; inhibition at 1 µM (NCI-H446 [18]): 85.8%; Activity (NCI-H446 [19]): Active; inhibition (HCT-116 [20]): Active; IC50 (NCI-H1650): 6.8 µM; Activity (NCI-H446 [21]): 5.3%; Activity (NCI-H446 [22]): 59.3%; Activity [11]: > 10%; Activity (NCI-H446 [23]): 27.8%; inhibition at 2 µM (NCI-H446 [24]): 33.7%
5 | 3.07 | 1.32 | 2.32 | > 95 | > 95 | 1.55 | Active | 0.95 | Active | Active | 2.89 | O=C(CCCn1c2cc3c(cc2c2ncc4ccccc4c21)OCO3)NO | –
6 | 1.16 | 0.22 | 0.6 | > 95 | > 95 | 0.63 | Active | 0.48 | Active | Active | 1.24 | CN(C)CCCn1c2cc3c(cc2c2[nH]c(=O)c4ccccc4c21)OCO3 | –
7 | 2.39 | 0.74 | 1.51 | > 95 | > 95 | 1.66 | Active | 0.98 | Active | Active | 2.98 | COc1ccc2c(c1)c1nc(Cl)c3ccccc3c1n2CCCC(=O)NO | –
8 | 3.64 | 1.87 | 2.86 | > 95 | > 95 | 2.44 | Active | 1.64 | Active | Active | 4.1 | O=C(CCCn1c2cc3c(cc2c2nc(Cl)c4ccccc4c21)OCO3)NO | inhibition [25]: Active; inhibition [26]: Active; inhibition [27]: Active; inhibition [28]: Active; inhibition [29]: Active
